Assay: refractive index (other wavelength) (dimensionless); xn = mol fraction of the nth substance listed
Conditions: 101 kPa, Liquid, Standard Abbe refractometry

CC(C)OC(C)C [diisopropyl ether] + CO
Conditions | refractive index
313.15 K, Wavelength=644 nm, x2 = 0.9527 | 1.32574
313.15 K, Wavelength=644 nm, x2 = 0.9773 | 1.32248
313.15 K, Wavelength=644 nm, x2 = 0.989 | 1.3213
313.15 K, Wavelength=644 nm, x2 = 0.9964 | 1.32034
313.15 K, Wavelength=706.5 nm, x2 = 0 | 1.35401
313.15 K, Wavelength=706.5 nm, x2 = 0.0423 | 1.35395
313.15 K, Wavelength=706.5 nm, x2 = 0.0424 | 1.35398
313.15 K, Wavelength=706.5 nm, x2 = 0.082 | 1.35392
313.15 K, Wavelength=706.5 nm, x2 = 0.0822 | 1.35411
313.15 K, Wavelength=706.5 nm, x2 = 0.1171 | 1.35398
313.15 K, Wavelength=706.5 nm, x2 = 0.1271 | 1.35399
313.15 K, Wavelength=706.5 nm, x2 = 0.1827 | 1.35378
313.15 K, Wavelength=706.5 nm, x2 = 0.2162 | 1.35364
313.15 K, Wavelength=706.5 nm, x2 = 0.251 | 1.35322
313.15 K, Wavelength=706.5 nm, x2 = 0.3298 | 1.35329
313.15 K, Wavelength=706.5 nm, x2 = 0.3577 | 1.35251
313.15 K, Wavelength=706.5 nm, x2 = 0.4497 | 1.35124
313.15 K, Wavelength=706.5 nm, x2 = 0.4525 | 1.35165
313.15 K, Wavelength=706.5 nm, x2 = 0.522 | 1.34954
313.15 K, Wavelength=706.5 nm, x2 = 0.609 | 1.34648
313.15 K, Wavelength=706.5 nm, x2 = 0.6529 | 1.34501
313.15 K, Wavelength=706.5 nm, x2 = 0.7504 | 1.34121
313.15 K, Wavelength=706.5 nm, x2 = 0.804 | 1.33693
313.15 K, Wavelength=706.5 nm, x2 = 0.807 | 1.33702
313.15 K, Wavelength=706.5 nm, x2 = 0.8727 | 1.33354
313.15 K, Wavelength=706.5 nm, x2 = 0.9233 | 1.32582
313.15 K, Wavelength=706.5 nm, x2 = 0.9253 | 1.32745
313.15 K, Wavelength=706.5 nm, x2 = 0.9527 | 1.32454
313.15 K, Wavelength=706.5 nm, x2 = 0.9773 | 1.32131
313.15 K, Wavelength=706.5 nm, x2 = 0.989 | 1.32103
313.15 K, Wavelength=706.5 nm, x2 = 0.9964 | 1.31919
318.15 K, Wavelength=40.47 nm, x2 = 0 | 1.36447
318.15 K, Wavelength=40.47 nm, x2 = 0.0423 | 1.36444
318.15 K, Wavelength=40.47 nm, x2 = 0.0424 | 1.3644
318.15 K, Wavelength=40.47 nm, x2 = 0.082 | 1.36442
318.15 K, Wavelength=40.47 nm, x2 = 0.0822 | 1.36413
318.15 K, Wavelength=40.47 nm, x2 = 0.1171 | 1.36444
318.15 K, Wavelength=40.47 nm, x2 = 0.1271 | 1.36445
318.15 K, Wavelength=40.47 nm, x2 = 0.1827 | 1.36427
318.15 K, Wavelength=40.47 nm, x2 = 0.2162 | 1.36415
318.15 K, Wavelength=40.47 nm, x2 = 0.251 | 1.3636
318.15 K, Wavelength=40.47 nm, x2 = 0.3298 | 1.36408
318.15 K, Wavelength=40.47 nm, x2 = 0.3577 | 1.36296
318.15 K, Wavelength=40.47 nm, x2 = 0.4497 | 1.36174
318.15 K, Wavelength=40.47 nm, x2 = 0.4525 | 1.36248
318.15 K, Wavelength=40.47 nm, x2 = 0.522 | 1.35999
318.15 K, Wavelength=40.47 nm, x2 = 0.5543 | 1.35901
318.15 K, Wavelength=40.47 nm, x2 = 0.609 | 1.35666
318.15 K, Wavelength=40.47 nm, x2 = 0.6529 | 1.35514
318.15 K, Wavelength=40.47 nm, x2 = 0.7504 | 1.35095
318.15 K, Wavelength=40.47 nm, x2 = 0.804 | 1.34473
318.15 K, Wavelength=40.47 nm, x2 = 0.807 | 1.3465
318.15 K, Wavelength=40.47 nm, x2 = 0.8727 | 1.34338
318.15 K, Wavelength=40.47 nm, x2 = 0.9233 | 1.33515
318.15 K, Wavelength=40.47 nm, x2 = 0.9253 | 1.33682
318.15 K, Wavelength=40.47 nm, x2 = 0.9527 | 1.33369
318.15 K, Wavelength=40.47 nm, x2 = 0.9773 | 1.33062
318.15 K, Wavelength=40.47 nm, x2 = 0.989 | 1.32932
318.15 K, Wavelength=40.47 nm, x2 = 0.9964 | 1.32844
318.15 K, Wavelength=435.8 nm, x2 = 0 | 1.36157
318.15 K, Wavelength=435.8 nm, x2 = 0.0423 | 1.36155
318.15 K, Wavelength=435.8 nm, x2 = 0.0424 | 1.36152
318.15 K, Wavelength=435.8 nm, x2 = 0.082 | 1.36153
318.15 K, Wavelength=435.8 nm, x2 = 0.0822 | 1.36167
318.15 K, Wavelength=435.8 nm, x2 = 0.1171 | 1.36159
318.15 K, Wavelength=435.8 nm, x2 = 0.1271 | 1.36158
318.15 K, Wavelength=435.8 nm, x2 = 0.1827 | 1.3614
318.15 K, Wavelength=435.8 nm, x2 = 0.2162 | 1.36132
318.15 K, Wavelength=435.8 nm, x2 = 0.251 | 1.36074
318.15 K, Wavelength=435.8 nm, x2 = 0.3298 | 1.36122
318.15 K, Wavelength=435.8 nm, x2 = 0.3577 | 1.36012
318.15 K, Wavelength=435.8 nm, x2 = 0.4497 | 1.35893
318.15 K, Wavelength=435.8 nm, x2 = 0.4525 | 1.35967
318.15 K, Wavelength=435.8 nm, x2 = 0.522 | 1.3572
318.15 K, Wavelength=435.8 nm, x2 = 0.5543 | 1.35624
318.15 K, Wavelength=435.8 nm, x2 = 0.609 | 1.35398
318.15 K, Wavelength=435.8 nm, x2 = 0.6529 | 1.35244
318.15 K, Wavelength=435.8 nm, x2 = 0.7504 | 1.34832
318.15 K, Wavelength=435.8 nm, x2 = 0.804 | 1.34218
318.15 K, Wavelength=435.8 nm, x2 = 0.807 | 1.34393
318.15 K, Wavelength=435.8 nm, x2 = 0.8727 | 1.34082
318.15 K, Wavelength=435.8 nm, x2 = 0.9233 | 1.33279
318.15 K, Wavelength=435.8 nm, x2 = 0.9253 | 1.33442
318.15 K, Wavelength=435.8 nm, x2 = 0.9527 | 1.33136
318.15 K, Wavelength=435.8 nm, x2 = 0.9773 | 1.32834
318.15 K, Wavelength=435.8 nm, x2 = 0.989 | 1.32708
318.15 K, Wavelength=435.8 nm, x2 = 0.9964 | 1.32617
318.15 K, Wavelength=486.1 nm, x2 = 0 | 1.35832
318.15 K, Wavelength=486.1 nm, x2 = 0.0423 | 1.35829
318.15 K, Wavelength=486.1 nm, x2 = 0.0424 | 1.35828
318.15 K, Wavelength=486.1 nm, x2 = 0.082 | 1.35827
318.15 K, Wavelength=486.1 nm, x2 = 0.0822 | 1.35838
318.15 K, Wavelength=486.1 nm, x2 = 0.1171 | 1.35824
318.15 K, Wavelength=486.1 nm, x2 = 0.1271 | 1.35832

— the NIST ThermoML archive (doi:10.1016/j.fluid.2014.09.014)
